Experiment [1] concerns the target T1, protein which has activity to transfer a glycosyl group to the 3′-position of anthocyanins (Gentiana triflora, UniProt Q8H0F2).
T1 construct: A DNA fragment of approximately 1.6 kbp, which was obtained by digestion of pG3′GT7 with XhoI, was recovered; made in house; extract after glass-bead disruption
T1 sequence (Q8H0F2 1-482): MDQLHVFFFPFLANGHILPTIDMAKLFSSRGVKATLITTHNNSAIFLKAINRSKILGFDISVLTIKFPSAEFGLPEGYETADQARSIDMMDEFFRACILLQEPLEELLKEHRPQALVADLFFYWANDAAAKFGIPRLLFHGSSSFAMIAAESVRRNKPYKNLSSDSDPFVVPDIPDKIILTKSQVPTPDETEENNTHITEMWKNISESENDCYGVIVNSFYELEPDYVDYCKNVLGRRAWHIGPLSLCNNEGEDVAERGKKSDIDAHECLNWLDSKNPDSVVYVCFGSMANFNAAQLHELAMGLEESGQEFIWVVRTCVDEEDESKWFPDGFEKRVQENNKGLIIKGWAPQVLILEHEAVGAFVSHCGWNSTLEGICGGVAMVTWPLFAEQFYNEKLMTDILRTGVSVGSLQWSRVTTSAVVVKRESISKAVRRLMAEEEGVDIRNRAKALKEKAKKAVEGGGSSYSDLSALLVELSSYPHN
Briefly: Enzyme activity of extract from yeast transformed with pYG3′GT7 (measured as in Example 1, HPLC). As to conditions: compound used as substrate. It is filed as biochemical, gentian. How it is done:
(§1) 20 μl of the crude enzyme extract solution, 10 μl of 0.5M potassium phosphate (pH 8.5), 10 μl of 5 mM UDP-glucose, 10 μl of delphinidin 3,5-diglucoside (1.5 mg/ml) were mixed and maintained at 30° C. for 10 minutes. Then, following the procedure of Fujiwara et al. (Fujiwara et al. Plant J. (1998)), reaction was terminated, and the reaction product was analyzed using high performance liquid chromatography (HPLC). As a result, it was determined that gentian flower petals contain an enzyme having activity to transfer a glycosyl group to the 3′-position of an anthocyanin.
A DNA fragment of approximately 1.6 kbp, which was obtained by digestion of pG3′GT7 with XhoI, was recovered. This DNA was ligated to a DNA fragment obtained by digesting pYE22m with SaII, and the obtained plasmid that has the initiation codon nearer to the promotor on pYE22m was denoted by pYG3′GT7. pYE22m was constructed according to the method as set forth in Japanese Patent Publication No. 4-228078. This plasmid was introduced into yeast cells to obtain transformed yeast cells. After the yeast cells were cultured and disrupted with glass beads, enzyme activity was measured as in Example 1 using delphinidin 3,5-diglucoside as substrate.
No activity was found in the yeast in which the plasmid was not introduced. When cyanidin 3,5-diglucoside was used as substrate, no new peak was produced.

In a further experiment the target is T2, 3′GT (Gentiana triflora, UniProt Q8H0F2).
T2 construct: the region from the initiation methionine to poly A of pG3′GT7 was inserted in the NcoI/KpnI site of E. coli expression vector pQE61; made in house; host or cells: Escherichia coli JM105 (vector pQE61, plasmid pG3′Q1)
T2 sequence (Q8H0F2 1-482): T1 sequence (Q8H0F2 1-482)
Briefly: Analysis of substrate specificity of purified 3′GT expressed in Escherichia coli (glucose transfer from UDP-glucose, HPLC). The experiment is classed as biochemical, gentian. As to conditions: compound used as substrate; for relative activity: activity to delphinidin 3,5-glucoside assumed to be 100%; for 3′GT activity to substrate (qualitative): purified sample of 3′GT from E. coli. As for the experimental part:
as §1
Using the PCR method, an NcoI site was introduced so as to coincide with the initiation methionine codon of pG3′GT7, and the region from the initiation methionine to poly A of pG3′GT7 was inserted in the NcoI/KpnI site of E. coli expression vector pQE61 (QIAGEN). The obtained E. coli expression vector was denoted by pG3′Q1. pG3′Q1 was introduced into the Escherichia coli JM105 strain, and after preculturing overnight at 37° C., a part of the precultured medium was innoculated into 8 L of a main culture medium, and was cultured at 27° C. until OD600=0.6. To induce expression of the 3′GT gene, IPTG was added so as to reach a final concentration of 0.4 mM, and was cultured overnight at 27° C. After cells were collected, washed, and suspended in 400 ml of crushing buffer (25 mM Tris-HCl (pH 7.5), 250 mM NaCl, 1 mM EDTA, 0.5% β-mercaptoethanol), the cells were disrupted by ultrasonic treatment. After centrifuging, the resultant supernatant was subjected to processing with DE52, and a 40–70% ammonium sulfate precipitate fraction was recovered. After desalting, the crude protein solution was loaded onto a DEAE-TOYOPEARL (Toso Co.) preequilibrated with buffer C (25 mM Tris-HCl (pH 7.5), 0.5% β-mercaptoethanol), and was eluted with buffer C containing 0–0.5 M NaCl. The active fraction was recovered, adsorbed to BlueA (Amicon Co.) equilibrated buffer C, and was eluted with a linear gradient formed with the buffer C and the buffer C containing 2 M NaCl. The obtained active fraction was used in the reaction, to be described later, as a purified sample of the 3′GT portion.
Using the purified sample of the 3′GT portion obtained in Example 6, the substrate-specificity of the 3′GT was analyzed. […] Assuming the relative activity to delphinidin 3,5-glucoside to be 100%, the activity to delphinidin 3-glucosyl-5-caffeoylglucoside is about 50%. Trace amount of products (1% or less) were also observed using delphinidin or delphinidin 3-diglucoside as a substrate. From retention time of HPLC and the absorption spectrum, the reaction product is considered to be a substrate having a glycosyl group added to the 3′-position thereof.

Consider `OC[C@H]1O[C@@H](Oc2cc3c(O[C@@H]4O[C@H](CO)[C@@H](O)[C@H](O)[C@H]4O)cc(O)cc3[o+]c2-c2cc(O)c(O)c(O)c2)[C@H](O)[C@@H](O)[C@@H]1O` [delphinidin 3,5-diglucoside], for which the “activity for adding a glycosyl group to substrate (qualitative)” value in experiment [1] is “exhibits activity”. On 3′GT, the relative activity is recorded as 100% and the “3′GT activity to substrate (qualitative)” value was “exhibits activity”.

In the case of `OC[C@H]1O[C@@H](Oc2cc3c(O[C@@H]4O[C@H](CO)[C@@H](O)[C@H](O)[C@H]4O)cc(O)cc3[o+]c2-c2ccc(O)c(O)c2)[C@H](O)[C@@H](O)[C@@H]1O` [cyanidin 3,5-diglucoside], the “activity for adding a glycosyl group to substrate (qualitative)” value in experiment [1] is given as “exhibits no activity”. Further, at 3′GT, the “3′GT activity to substrate (qualitative)” value was “not”.

In the case of “delphinidin 3-glucosyl-5-caffeoylglucoside”, on 3′GT, the relative activity result was “about 50%” and the “3′GT activity to substrate (qualitative)” value is reported as “exhibits activity”.

Values taken from patent US7160700B2, “Glycosyltransferase genes” (International Flower Developments Proprietary Limited, priority 2000, dated 2007).
